Reference: article PMC7508416 (Chemical research in toxicology, 2020)
Like-named read-outs stand apart in the source and are kept apart here. Marks after values point to notes of the source that are not given here.

How the values were obtained:
[1] = linear regression
[2] = for % Depletion: after 60 min (Eq. 1); for Percentage of Initial Parent Administration (Mean ± Std Dev): Total: parents plus quantified metabolites; for Initial parent mass unaccounted for after quantifying suspected metabolites: metabolites with authentic standards available
[3] = design: species or system human; conditions: pooled urine of children aged 3-6; tentative, exact mass match
[4] = cited from earlier work
[5] = gavage of a technical mixture containing 35% 2IPPDPP; cited from earlier work
[6] = cited from earlier work; remark: listed apart in the source
[7] = 1 μM, s9 & sulfatase & glucuronidase
[8] = 10 μM, s9 & sulfatase & glucuronidase

## CC(C)c1ccccc1OP(=O)(Oc1ccccc1)Oc1ccccc1 [2IPPDPP, 2-isopropylphenyl diphenyl phosphate]
[1]; 1 μM dose
  Depletion rate, slope, first-order kinetics: −0.010 ln[nmol]/min/mg protein
  Depletion rate, slope, zero-order kinetics: −0.013 ^* nmol/min/mg protein
[1]; 10 μM dose
  Depletion rate, slope, first-order kinetics: −0.0048 ln[nmol]/min/mg protein
  Depletion rate, slope, zero-order kinetics: −0.092 nmol/min/mg protein
[2]; 1 μM, Abiotic Control
  Percentage of Initial Parent Administration (Mean ± Std Dev): parent compound: 105 ± 20%
  % Depletion: 0%
[2]; 1 μM, Heat-inactivated s9
  Percentage of Initial Parent Administration (Mean ± Std Dev): parent compound: 101 ± 8%
  % Depletion: 0%
[2]; 1 μM, s9
  Percentage of Initial Parent Administration (Mean ± Std Dev): parent compound: 56 ± 10%
  % Depletion: 44%
[2]; 1 μM, s9 & glucuronidase
  Percentage of Initial Parent Administration (Mean ± Std Dev): parent compound: 65 ± 3%
  % Depletion: 35%
[2]; 1 μM, s9 & sulfatase
  Percentage of Initial Parent Administration (Mean ± Std Dev): parent compound: 64 ± 6%
  % Depletion: 36%
[2]; [7]
  Percentage of Initial Parent Administration (Mean ± Std Dev): parent compound: 67 ± 4%
  % Depletion: 33%
[2]; 1 μM, unprocessed spike
  Percentage of Initial Parent Administration (Mean ± Std Dev): parent compound: 100 ± 13%
  Percentage of Initial Parent Administration (Mean ± Std Dev): Total: 100 ± 13%
[2]; 10 μM, Abiotic Control
  Percentage of Initial Parent Administration (Mean ± Std Dev): parent compound: 103 ± 10%
  % Depletion: 0%
[2]; 10 μM, Heat-inactivated s9
  Percentage of Initial Parent Administration (Mean ± Std Dev): parent compound: 103 ± 11%
  % Depletion: 0%
[2]; 10 μM, s9
  Percentage of Initial Parent Administration (Mean ± Std Dev): parent compound: 77 ± 5%
  % Depletion: 23%
[2]; 10 μM, s9 & glucuronidase
  Percentage of Initial Parent Administration (Mean ± Std Dev): parent compound: 82 ± 3%
  % Depletion: 18%
[2]; [8]
  Percentage of Initial Parent Administration (Mean ± Std Dev): parent compound: 84 ± 4%
  % Depletion: 16%
[2]; 10 μM, s9 & sulfatase
  % Depletion: 20%
[2]; 10 μM, unprocessed spike
  Percentage of Initial Parent Administration (Mean ± Std Dev): parent compound: 100 ± 9%
[2]
  Initial parent mass unaccounted for after quantifying suspected metabolites: approximately 20%

## hydroxy-o-isopropylphenyl diphenyl phosphate [Hydroxylated 2IPPDPP]
[3]
  Detection in human urine samples (number of samples out of 9): not detected

## mono-isopropenylphenyl diphenyl phosphate
[3]
  Detection in human urine samples (number of samples out of 9): 1

## O=P(O)(Oc1ccccc1)Oc1ccccc1 [DPHP, diphenyl phosphate]
[4]
  Geometric mean urinary concentration: around 10 nM

## C=C(C)c1ccccc1OP(=O)(Oc1ccccc1)Oc1ccccc1 [mono-(o-isopropenylphenyl)-diphenyl phosphate]
[5]
  Detection in rabbit bile: detected

## CC(C)c1ccccc1OP(=O)(Oc1ccccc1C(C)C)Oc1ccccc1C(C)C [T2IPPP]
[6]; ref Strobel et al., 2018
  DPHP formation following incubation: not detected

## 2-phenyl-4H,−4,4-dimethyl-1,1,3,2 -benzodioxapho-sphoran-2-oxide
[3]
  Detection in human urine samples (number of samples out of 9): 1
[5]
  Detection in rabbit bile: detected

## CC(C)(C)c1ccc(OP(=O)(Oc2ccccc2)Oc2ccccc2)cc1 [4tBPDPP, 4-tert-butylphenyl diphenyl phosphate]
[1]; 1 μM dose
  Depletion rate, slope, first-order kinetics: −0.013 ln[nmol]/min/mg protein
  Depletion rate, slope, zero-order kinetics: −0.031 nmol/min/mg protein
[1]; 10 μM dose
  Depletion rate, slope, first-order kinetics: −0.0013 ln[nmol]/min/mg protein
  Depletion rate, slope, zero-order kinetics: −0.082 nmol/min/mg protein
[6]; 2 μM, 100-min incubation
  Parent converted to DPHP: 41%
[2]; 1 μM, Abiotic Control
  Percentage of Initial Parent Administration (Mean ± Std Dev): parent compound: 84 ± 8%
  % Depletion: 9%
[2]; 1 μM, Heat-inactivated s9
  Percentage of Initial Parent Administration (Mean ± Std Dev): parent compound: 81 ± 6%
  % Depletion: 12%
[2]; 1 μM, s9
  Percentage of Initial Parent Administration (Mean ± Std Dev): parent compound: 59 ± 11%
  % Depletion: 41%
[2]; 1 μM, s9 & glucuronidase
  Percentage of Initial Parent Administration (Mean ± Std Dev): parent compound: 56 ± 5%
  % Depletion: 43%
[2]; 1 μM, s9 & sulfatase
  Percentage of Initial Parent Administration (Mean ± Std Dev): parent compound: 61 ± 5%
  % Depletion: 39%
[2]; [7]
  Percentage of Initial Parent Administration (Mean ± Std Dev): parent compound: 60 ± 6%
  % Depletion: 39%
[2]; 1 μM, unprocessed spike
  Percentage of Initial Parent Administration (Mean ± Std Dev): parent compound: 92 ± 4%
  Percentage of Initial Parent Administration (Mean ± Std Dev): Total: 100 ± 4%
[2]; 10 μM, Abiotic Control
  Percentage of Initial Parent Administration (Mean ± Std Dev): parent compound: 81 ± 1%
  % Depletion: 8%
[2]; 10 μM, Heat-inactivated s9
  Percentage of Initial Parent Administration (Mean ± Std Dev): parent compound: 79 ± 11%
  % Depletion: 12%
[2]; 10 μM, s9
  Percentage of Initial Parent Administration (Mean ± Std Dev): parent compound: 83 ± 2%
  % Depletion: 12%
[2]; 10 μM, s9 & glucuronidase
  Percentage of Initial Parent Administration (Mean ± Std Dev): parent compound: 72 ± 5%
  % Depletion: 23%
[2]; 10 μM, s9 & sulfatase
  Percentage of Initial Parent Administration (Mean ± Std Dev): parent compound: 73 ± 9%
  % Depletion: 23%
[2]; [8]
  Percentage of Initial Parent Administration (Mean ± Std Dev): parent compound: 71 ± 6%
  % Depletion: 25%
[2]; 10 μM, unprocessed spike
  Percentage of Initial Parent Administration (Mean ± Std Dev): parent compound: 89 ± 1%
[2]; human, pH 7.4
  Percent depletion lower than that of TPHP: 30–45%

## CC(C)c1ccc(OP(=O)(Oc2ccccc2)Oc2ccccc2)cc1 [4IPPDPP, 4-isopropylphenyl diphenyl phosphate]
[1]; 1 μM dose
  Depletion rate, slope, first-order kinetics: −0.015 ln[nmol]/min/mg protein
  Depletion rate, slope, zero-order kinetics: −0.042 nmol/min/mg protein
[1]; 10 μM dose
  Depletion rate, slope, first-order kinetics: −0.0034 ln[nmol]/min/mg protein
  Depletion rate, slope, zero-order kinetics: −0.097 nmol/min/mg protein
[2]; 1 μM, Abiotic Control
  Percentage of Initial Parent Administration (Mean ± Std Dev): parent compound: 108 ± 23%
  % Depletion: 0%
[2]; 1 μM, Heat-inactivated s9
  Percentage of Initial Parent Administration (Mean ± Std Dev): parent compound: 82 ± 5%
  % Depletion: 18%
[2]; 1 μM, s9
  Percentage of Initial Parent Administration (Mean ± Std Dev): parent compound: 27 ± 4%
  % Depletion: 73%
[2]; 1 μM, s9 & glucuronidase
  Percentage of Initial Parent Administration (Mean ± Std Dev): parent compound: 27 ± 1%
  % Depletion: 73%
[2]; 1 μM, s9 & sulfatase
  Percentage of Initial Parent Administration (Mean ± Std Dev): parent compound: 29 ± 3%
  % Depletion: 71%
[2]; [7]
  Percentage of Initial Parent Administration (Mean ± Std Dev): parent compound: 32 ± 3%
  % Depletion: 68%
[2]; 1 μM, unprocessed spike
  Percentage of Initial Parent Administration (Mean ± Std Dev): parent compound: 100 ± 2%
  Percentage of Initial Parent Administration (Mean ± Std Dev): Total: 100 ± 13%
[2]; 10 μM, Abiotic Control
  Percentage of Initial Parent Administration (Mean ± Std Dev): parent compound: 94 ± 6%
  % Depletion: 6%
[2]; 10 μM, Heat-inactivated s9
  Percentage of Initial Parent Administration (Mean ± Std Dev): parent compound: 97 ± 10%
  % Depletion: 3%
[2]; 10 μM, s9
  Percentage of Initial Parent Administration (Mean ± Std Dev): parent compound: 55 ± 3%
  % Depletion: 45%
[2]; 10 μM, s9 & glucuronidase
  Percentage of Initial Parent Administration (Mean ± Std Dev): parent compound: 57 ± 2%
  % Depletion: 43%
[2]; 10 μM, s9 & sulfatase
  Percentage of Initial Parent Administration (Mean ± Std Dev): parent compound: 54 ± 1%
  % Depletion: 46%
[2]; [8]
  Percentage of Initial Parent Administration (Mean ± Std Dev): parent compound: 55 ± 4%
  % Depletion: 45%
[2]; 10 μM, unprocessed spike
  Percentage of Initial Parent Administration (Mean ± Std Dev): parent compound: 100 ± 3%
[2]
  Initial parent mass unaccounted for after quantifying suspected metabolites: approximately 20%
